# According to patent US12264156B2, “Compounds and pharmaceutical compositions thereof for the treatment of diseases” (GALAPAGOS NV, priority 2018, dated 2025):
# How the values were obtained:
# Assay type in all cases: biochemical
# Settings in all cases: ADP-Glo SIK kinase assay
# SIK1 = target: T1, SIK1 (Homo sapiens, UniProt P57059); test: ADP-Glo kinase assay, SIK1
# T1 construct: purchased Carna Biosciences 02-131
# Protocol: (§1) The ADP-Glo™ kinase assay is a luminescent technology assay which measures the ADP formed from a kinase reaction. […] In a second step the kinase reactions are terminated and all the remaining ATP is depleted. In a final step the ADP is converted into ATP and this newly synthesized ATP is measured by using a luciferase/luciferin reaction. The generated light is measured using an Envision plate reader, wherein the luminescent signal obtained positively correlates with the kinase activity.
# (§2) 1% DMSO and 10 μM staurosporine final concentrations are used as negative and positive controls.
# (§3) 2 μL enzyme-substrate mixture is added to the assay plates.
# (§4) The reaction is started by adding 2 μL diluted ATP on the assay plates. Plates are centrifuged for a few seconds at 1000 rpm and gently shaken for 2 min followed by an incubation at RT for 120 min.
# (§5) The reactions are stopped and the unconsumed ATP is depleted by adding 5 μL ADP-Glo Reagent (Promega, Cat #V912B) to the reaction. The plates are centrifuged for a few seconds at 1000 rpm and incubated at RT for 40 min (ATP depletion).
# (§6) The ADP is converted to ATP and luciferase and luciferin is introduced to detect ATP by adding 10 μL Kinase Detection Reagent (Promega, Cat #V913B+V914B) to the reaction. The plates are centrifuged for a few seconds at 1000 rpm and incubated at RT for 30 min (ADP detection).
# (§7) Luminescence is measured on an Envision plate reader (PerkinElmer Inc.).
# SIK2 = target: T2, SIK2 (Homo sapiens, UniProt Q9H0K1); test: ADP-Glo kinase assay, SIK2
# T2 construct: purchased ThermoFisher Scientific PV4792
# Protocol: as §1, §2, §3, §4, §5, §6, §7
# SIK3 = target: T3, SIK3 (Homo sapiens, UniProt Q9Y2K2); test: ADP-Glo kinase assay, SIK3
# T3 construct: purchased SignalChem S12-11G-100
# Protocol: as §1, §2, §3, §4, §5, §6, §7
# T1 sequence (P57059 whole entry): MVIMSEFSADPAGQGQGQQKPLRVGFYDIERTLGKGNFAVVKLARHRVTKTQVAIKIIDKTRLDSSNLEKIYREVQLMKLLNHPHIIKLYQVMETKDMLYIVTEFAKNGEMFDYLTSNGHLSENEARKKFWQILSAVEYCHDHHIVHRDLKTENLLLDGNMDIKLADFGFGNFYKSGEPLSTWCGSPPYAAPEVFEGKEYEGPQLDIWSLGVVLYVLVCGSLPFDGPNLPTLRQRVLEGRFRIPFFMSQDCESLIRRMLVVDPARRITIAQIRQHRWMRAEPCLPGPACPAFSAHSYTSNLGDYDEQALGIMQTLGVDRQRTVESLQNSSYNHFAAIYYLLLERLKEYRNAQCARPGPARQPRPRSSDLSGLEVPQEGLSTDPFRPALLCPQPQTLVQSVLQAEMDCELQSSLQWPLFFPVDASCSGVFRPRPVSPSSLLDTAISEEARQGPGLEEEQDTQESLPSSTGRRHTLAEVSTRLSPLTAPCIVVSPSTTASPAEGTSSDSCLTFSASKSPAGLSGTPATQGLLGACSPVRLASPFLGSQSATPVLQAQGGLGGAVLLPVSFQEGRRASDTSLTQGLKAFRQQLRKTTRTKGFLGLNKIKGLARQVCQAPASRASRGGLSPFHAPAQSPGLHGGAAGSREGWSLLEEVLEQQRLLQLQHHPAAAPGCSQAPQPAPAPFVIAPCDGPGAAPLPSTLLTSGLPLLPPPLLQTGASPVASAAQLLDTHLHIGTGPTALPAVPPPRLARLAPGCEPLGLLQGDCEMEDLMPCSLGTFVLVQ
# T2 sequence (Q9H0K1 whole entry): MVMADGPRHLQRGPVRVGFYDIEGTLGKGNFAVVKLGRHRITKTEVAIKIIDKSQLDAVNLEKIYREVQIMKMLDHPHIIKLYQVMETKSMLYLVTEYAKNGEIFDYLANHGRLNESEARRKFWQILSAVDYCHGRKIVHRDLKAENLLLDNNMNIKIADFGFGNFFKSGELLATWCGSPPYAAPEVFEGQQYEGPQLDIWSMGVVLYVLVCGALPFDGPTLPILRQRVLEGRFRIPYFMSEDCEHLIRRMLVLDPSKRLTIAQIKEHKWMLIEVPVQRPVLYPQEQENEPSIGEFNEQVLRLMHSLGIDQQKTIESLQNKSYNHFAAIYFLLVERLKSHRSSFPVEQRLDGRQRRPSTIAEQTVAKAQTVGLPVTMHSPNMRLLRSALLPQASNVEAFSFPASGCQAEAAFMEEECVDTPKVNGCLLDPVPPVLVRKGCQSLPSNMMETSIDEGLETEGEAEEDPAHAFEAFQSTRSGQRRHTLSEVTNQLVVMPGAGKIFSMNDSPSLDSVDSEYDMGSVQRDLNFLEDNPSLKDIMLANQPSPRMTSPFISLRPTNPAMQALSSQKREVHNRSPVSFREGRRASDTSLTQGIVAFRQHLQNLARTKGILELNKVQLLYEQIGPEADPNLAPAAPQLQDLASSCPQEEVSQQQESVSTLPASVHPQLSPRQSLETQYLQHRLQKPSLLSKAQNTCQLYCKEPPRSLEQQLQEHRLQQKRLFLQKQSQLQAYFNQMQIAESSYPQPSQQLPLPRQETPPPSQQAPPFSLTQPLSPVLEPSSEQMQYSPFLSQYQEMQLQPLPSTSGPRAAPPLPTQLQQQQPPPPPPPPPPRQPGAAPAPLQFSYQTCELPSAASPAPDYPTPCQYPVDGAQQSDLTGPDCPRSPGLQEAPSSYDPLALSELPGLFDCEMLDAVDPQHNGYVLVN
# T3 sequence (Q9Y2K2 whole entry): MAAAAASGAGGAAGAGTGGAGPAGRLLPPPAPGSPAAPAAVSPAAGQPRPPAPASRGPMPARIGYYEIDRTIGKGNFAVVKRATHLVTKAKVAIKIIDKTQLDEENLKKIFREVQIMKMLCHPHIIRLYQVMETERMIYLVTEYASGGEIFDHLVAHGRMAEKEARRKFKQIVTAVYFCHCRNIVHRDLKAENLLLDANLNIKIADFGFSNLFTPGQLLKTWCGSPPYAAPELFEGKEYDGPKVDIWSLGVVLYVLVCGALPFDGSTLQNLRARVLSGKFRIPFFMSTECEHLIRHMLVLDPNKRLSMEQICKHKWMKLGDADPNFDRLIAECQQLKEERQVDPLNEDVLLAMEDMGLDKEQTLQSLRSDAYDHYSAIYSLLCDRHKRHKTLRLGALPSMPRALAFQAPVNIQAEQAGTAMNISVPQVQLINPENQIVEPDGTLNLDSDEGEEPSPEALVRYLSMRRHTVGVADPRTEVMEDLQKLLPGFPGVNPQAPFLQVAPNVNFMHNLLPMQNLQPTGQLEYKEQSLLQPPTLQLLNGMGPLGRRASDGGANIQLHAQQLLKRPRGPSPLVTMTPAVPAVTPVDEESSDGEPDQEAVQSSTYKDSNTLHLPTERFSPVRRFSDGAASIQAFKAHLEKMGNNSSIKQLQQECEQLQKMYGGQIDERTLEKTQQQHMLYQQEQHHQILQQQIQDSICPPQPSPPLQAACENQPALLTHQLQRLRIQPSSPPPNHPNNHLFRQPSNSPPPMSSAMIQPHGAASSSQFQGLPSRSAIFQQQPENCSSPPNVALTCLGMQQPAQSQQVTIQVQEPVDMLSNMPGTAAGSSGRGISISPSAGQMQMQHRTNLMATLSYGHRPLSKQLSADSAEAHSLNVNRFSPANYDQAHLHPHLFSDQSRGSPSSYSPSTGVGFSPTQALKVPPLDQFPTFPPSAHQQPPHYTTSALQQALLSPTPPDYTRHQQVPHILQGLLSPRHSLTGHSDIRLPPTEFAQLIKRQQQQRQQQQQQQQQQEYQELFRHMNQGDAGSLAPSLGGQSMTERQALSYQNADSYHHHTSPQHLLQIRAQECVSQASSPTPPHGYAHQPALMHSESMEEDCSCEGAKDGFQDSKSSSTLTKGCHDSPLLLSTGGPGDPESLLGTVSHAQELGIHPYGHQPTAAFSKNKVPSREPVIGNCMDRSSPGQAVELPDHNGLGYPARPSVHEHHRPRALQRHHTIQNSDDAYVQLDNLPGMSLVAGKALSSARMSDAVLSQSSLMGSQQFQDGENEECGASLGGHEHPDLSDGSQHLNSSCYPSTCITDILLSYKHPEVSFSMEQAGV
Structure (SMILES),IC50 (SIK1),IC50 (SIK2),IC50 (SIK3)
"COc1cc(-c2cnc3cc(OC4CCOCC4)ccn23)cc(OC(F)F)c1C(=O)NC1CC1 [compound 1, N-cyclopropyl-2-(difluoromethoxy)-6-methoxy-4-(7-tetrahydropyran-4-yloxyimidazo[1,2-a]pyridin-3-yl)benzamide]",100 to 500 nM,100 to 500 nM,0.01 to 10 nM
"COc1cc(-c2cnc3cc(OC4CCCN(C)C4)ccn23)cc(OC(F)F)c1C(=O)NC1CC1 (stereo not drawn) [compound 2, N-cyclopropyl-2-(difluoromethoxy)-6-methoxy-4-[7-[(1-methyl-3-piperidyl)oxy]imidazo [1,2-a]pyridin-3-yl]benzamide]",> 500 nM,10 to 100 nM,0.01 to 10 nM
"COc1cc(-c2cnc3cc(OCC(C)(C)OC)ccn23)cc(OC(F)F)c1C(=O)NC1CC1 [compound 3, N-cyclopropyl-2-(difluoromethoxy)-6-methoxy-4-[7-(2-methoxy-2-methyl-propoxy)imidazo[1,2-a]pyridin-3-yl]benzamide]",10 to 100 nM,0.01 to 10 nM,0.01 to 10 nM
"COc1cc(-c2cnc3cc(OC4CCN(C)CC4)ccn23)cc(OC(F)F)c1C(=O)NC1CC1 [compound 7, N-cyclopropyl-2-(difluoromethoxy)-6-methoxy-4-[7-[(1-methyl-4-piperidyl)oxy]imidazo[1,2-a]pyridin-3-yl]benzamide]",> 500 nM,10 to 100 nM,10 to 100 nM
"COc1cc(-c2cnc3cc(OCC(C)(C)N4CCOCC4)ccn23)cc(OC(F)F)c1C(=O)NC1CC1 [compound 11, N-cyclopropyl-2-(difluoromethoxy)-6-methoxy-4-[7-(2-methyl-2-morpholino-propoxy)imidazo[1,2-a]pyridin-3-yl]benzamide]",100 to 500 nM,10 to 100 nM,0.01 to 10 nM
"COc1cc(-c2cnc3cc(OC(C)CN4CCOCC4)ccn23)cc(OC(F)F)c1C(=O)NC1CC1 (stereo not drawn) [compound 12, N-cyclopropyl-2-(difluoromethoxy)-6-methoxy-4-[7-(1-methyl-2-morpholino-ethoxy)imidazo[1,2-a]pyridin-3-yl]benzamide]",> 500 nM,100 to 500 nM,10 to 100 nM
"COc1cc(-c2cnc3cc(OC4CCN(C)C4)ccn23)cc(OC(F)F)c1C(=O)NC1CC1 (stereo not drawn) [compound 15, N-cyclopropyl-2-(difluoromethoxy)-6-methoxy-4-[7-(1-methylpyrrolidin-3-yl)oxyimidazo[1,2-a]pyridin-3-yl]benzamide]",> 500 nM,10 to 100 nM,10 to 100 nM
"COc1cc(-c2cnc3cc(OCc4cncn4C)ccn23)cc(OC(F)F)c1C(=O)NC1CC1 [compound 19, N-cyclopropyl-2-(difluoromethoxy)-6-methoxy-4-[7-[(3-methylimidazol-4-yl)methoxy]imidazo[1,2-a]pyridin-3-yl]benzamide]",10 to 100 nM,0.01 to 10 nM,0.01 to 10 nM
"COc1cc(-c2cnc3cc(OCCN4CCCC4)ccn23)cc(OC(F)F)c1C(=O)NC1CC1 [compound 20, N-cyclopropyl-2-(difluoromethoxy)-6-methoxy-4-[7-(2-pyrrolidin-1-ylethoxy)imidazo[1,2-a]pyridin-3-yl]benzamide]",10 to 100 nM,0.01 to 10 nM,0.01 to 10 nM
"COc1cc(-c2cnc3cc(OCCN4CCS(=O)(=O)CC4)ccn23)cc(OC(F)F)c1C(=O)NC1CC1 [compound 22, N-cyclopropyl-2-(difluoromethoxy)-4-[7-[2-(1,1-dioxo-1,4-thiazinan-4-yl)ethoxy]imidazo[1,2-a]pyridin-3-yl]-6-methoxy-benzamide]",10 to 100 nM,0.01 to 10 nM,0.01 to 10 nM
"COc1cc(-c2cnc3cc(OCCC4CCCCN4C)ccn23)cc(OC(F)F)c1C(=O)NC1CC1 (stereo not drawn) [compound 24, N-cyclopropyl-2-(difluoromethoxy)-6-methoxy-4-[7-[2-(1-methyl-2-piperidyl)ethoxy]imidazo [1,2-a]pyridin-3-yl]benzamide]",0.01 to 10 nM,0.01 to 10 nM,0.01 to 10 nM
"COc1cc(-c2cnc3cc(OCC4CCN(C)CC4)ccn23)cc(OC(F)F)c1C(=O)NC1CC1 [compound 25, N-cyclopropyl-2-(difluoromethoxy)-6-methoxy-4-[7-[(1-methyl-4-piperidyl)methoxy]imidazo[1,2-a]pyridin-3-yl]benzamide]",0.01 to 10 nM,0.01 to 10 nM,0.01 to 10 nM
"COc1cc(-c2cnc3cc(OCC4CC(=O)N(C)C4)ccn23)cc(OC(F)F)c1C(=O)NC1CC1 (stereo not drawn) [compound 26, N-cyclopropyl-2-(difluoromethoxy)-6-methoxy-4-[7-[(1-methyl-5-oxo-pyrrolidin-3-yl)methoxy]imidazo[1,2-a]pyridin-3-yl]benzamide]",10 to 100 nM,0.01 to 10 nM,0.01 to 10 nM
"COc1cc(-c2cnc3cc(OCCNC(C)=O)ccn23)cc(OC(F)F)c1C(=O)NC1CC1 [compound 27, 4-[7-(2-acetamidoethoxy)imidazo [1,2-a]pyridin-3-yl]-N-cyclopropyl-2-(difluoromethoxy)-6-methoxy-benzamide]",0.01 to 10 nM,0.01 to 10 nM,0.01 to 10 nM
"COc1cc(-c2cnc3cc(OCC4CCCN4C)ccn23)cc(OC(F)F)c1C(=O)NC1CC1 (stereo not drawn) [compound 28, N-cyclopropyl-2-(difluoromethoxy)-6-methoxy-4-[7-[(1-methylpyrrolidin-2-yl)methoxy]imidazo[1,2-a]pyridin-3-yl]benzamide]",100 to 500 nM,0.01 to 10 nM,0.01 to 10 nM
"COc1cc(-c2cnc3cc(OC4CN(C)C4)ccn23)cc(OC(F)F)c1C(=O)NC1CC1 [compound 29, N-cyclopropyl-2-(difluoromethoxy)-6-methoxy-4-[7-(1-methylazetidin-3-yl)oxyimidazo[1,2-a]pyridin-3-yl]benzamide]",100 to 500 nM,10 to 100 nM,10 to 100 nM
"COc1cc(-c2cnc3cc(OCCO)ccn23)cc(OC(F)F)c1C(=O)NC1CC1 [compound 30, N-cyclopropyl-2-(difluoromethoxy)-4-[7-(2-hydroxyethoxy)imidazo [1,2-a]pyridin-3-yl]-6-methoxy-benzamide]",10 to 100 nM,0.01 to 10 nM,0.01 to 10 nM
"COc1cc(-c2cnc3cc(OCCC#N)ccn23)cc(OC(F)F)c1C(=O)NC1CC1 [compound 31, 4-[7-(2-cyanoethoxy)imidazo[1,2-a]pyridin-3-yl]-N-cyclopropyl-2-(difluoromethoxy)-6-methoxy-benzamide]",> 500 nM,> 500 nM,> 500 nM
"COc1cc(-c2cnc3cc(OCc4ncco4)ccn23)cc(OC(F)F)c1C(=O)NC1CC1 [compound 32, N-cyclopropyl-2-(difluoromethoxy)-6-methoxy-4-[7-(oxazol-2-ylmethoxy)imidazo[1,2-a]pyridin-3-yl]benzamide]",10 to 100 nM,0.01 to 10 nM,0.01 to 10 nM
"COc1cc(-c2cnc3cc(OCC(C)(C)C#N)ccn23)cc(OC(F)F)c1C(=O)NC1CC1 [compound 34, 4-[7-(2-cyano-2-methyl-propoxy)imidazo[1,2-a]pyridin-3-yl]-N-cyclopropyl-2-(difluoromethoxy)-6-methoxy-benzamide]",10 to 100 nM,0.01 to 10 nM,0.01 to 10 nM
